The values below come from article PMC10035370, “Targeting Tumor Angiogenesis with the Selective VEGFR-3 Inhibitor EVT801 in Combination with Cancer Immunotherapy” (Cancer Research Communications, 2022).

One experiment has as its system ERK1/2 phosphorylation. The experiment is described as follows: VEGF-C-induced ERK1/2 phosphorylation in hLMVEC. It counts as cell-based. The settings on record: Homo sapiens, read-out: IC50, inhibition of VEGF-C-induced ERK1/2 phosphorylation. Here is the method:
hLMVECs were plated in 6-well tissue culture plates at a density of 2 x 10^5 cells for 48 h. Cells were then serum deprived for 2 h and either stimulated or mock stimulated for 10 min with VEGFC (500 ng/mL) in the presence or absence of EVT801. Then, cells were lysed and subjected to phospho-MAPK array or to phospho-ERK ELISA according to manufacturer’s instructions.

Another experiment has as its system CT26 tumors. The experiment is described as follows: CT26 ectopic tumor mouse model. It counts as in vivo, mice. Here is the method:
BALB/c mice were anesthetized with ketamine (100 mg/kg) combined with xylazine (10 mg/kg) via intraperitoneal injection. A total of 5 × 10^4 CT26 tumor cells were suspended in 200 μL of Matrigel matrix, and then inoculated in the flank of legs. After implantation, mice were randomly separated into two groups. One group received EVT801 by oral gavage and anti-PD-1 by intraperitoneal injection in a volume of 10 mL/kg, whereas the mice in the second group served as control, and were injected with IgG isotype. PD-1 was injected at day 11, day 14, and day 18 after CT26 inoculation. EVT801 was administrated daily by oral route at 30 mg/kg from day 11 until day 21. Tumor volume was measured on days 11, 13, 15, 18, 19 and 21 following tumor cell injection. The selected groups received vehicle or EVT801 orally in a volume of 10 mL/kg. At day 21, 60 mg/kg hypoxyprobe was injected 30 minutes before sacrifice of mice. The tumors were embedded in paraffin for histology studies.

The test system of the next experiment is 4T1 tumors. The experiment is described as follows: 4T1 mammary carcinoma mouse model, with anti-PD-1. It counts as in vivo, mice. Here is the method: The 4T1 mammary carcinoma mouse models were used as reported previously ([26]). Briefly, 1 × 10^5 4T1 cells were implanted into mammary fat pads of BALB/c mice. […] Tumors were measured two to three times weekly with calipers. The tumor volume (V) was calculated using the formula V = 0.52 × a^2 × b (a: smallest tumor diameter; b: largest tumor diameter). The tumors, lungs, and axillary lymph nodes were removed at day 21 for treatment with anti-PD-1, and day 28 for treatment with anti-CTLA-4. The tumors and the lungs were embedded in paraffin for histology studies. […] The metastatic scoring was determined as follows: (0) no metastasis; ([1]) 1 to 20 metastases < 50 μm; ([2]) between 21 and 50 metastases < 50 μm; ([3]) 1 or more metastases > […]; ([4]) 1 or more metastases > […].

The next experiment concerns DEN-induced liver tumor. The experiment is described as follows: N-diethylnitrosamine-induced hepatocarcinoma mouse model. It counts as in vivo, mice. The settings on record: daily doses of 100 mg/kg for 2 months. Here is the method:
After weighing, 38 male C3/H mice received a 10 mg/kg dose of N-diethylnitrosamine (DEN) intraperitoneally, whereas a group of 5 animals was kept without DEN injection as control group. After 12 months, mice that received DEN injection were randomized by weight in two groups of each 19 animals. The mice were dosed daily orally for 2 months either with EVT801 or vehicle. On the day of termination, mice treated with EVT801 received a last dose of 30 mg/kg to take blood and tumor samples for compound concentration determination. After incision of the peritoneal cavity, blood was taken from the vena cava. Following excision and weighing of the liver, the number of tumors per liver was counted. The tumor burden was calculated as the sum of individual tumor volumes for each mouse. No blood sampling was performed on control and vehicle groups. Plasma and tumor samples were stored at −20°C until analysis. Concentration of EVT801 was determined by LC/MS-MS.

Experiment [1] concerns the target T1, VEGFR-2 (Homo sapiens, UniProt P35968). The experiment is described as follows: Cellular autophosphorylation assay, HEK293 cells transiently expressing VEGFR-2. It is filed as cell-based. Details: expressed in transfected cells; host or cells: HEK293T. The following applies: read-out: IC50 in cellular assays, VEGFR-2 autophosphorylation. Here is the method: (§1) Transfection of HEK293T cells and Ba/F3 cells with VEGFR-1-Flag, VEGFR-2-Flag or VEGFR-3-Flag expression constructs was performed using Fugene-6 (Roche) as per manufacturer’s protocol. Briefly, Fugene-6 was pre-incubated with Opti-Mem (Gibco) before adding DNA. After 24 h, media was replaced with serum-free culture media containing 0.2 % BSA. On the next day, cells were incubated for 1 h in 1 mM orthovanadate, harvested, dissociated and distributed at 4 x 10^5 cells in 5 mL for HEK-VEGFR-1 and HEK-VEGFR-3, and 5 x 10^4 cells per 5 mL for HEK VEGFR-2 in the presence of EVT801 or SAR401849. After 30 min, the reaction was stopped by the addition of cold PBS supplemented with 1 mM orthovanadate. Cells were then lysed with 150 μl of RIPA buffer for 15 min at 4°C, then centrifuged for 10 min at 10,000 g. Supernatants (75 μl) were distributed in duplicate on 96 well plates that were precoated with the anti-flag, and left for 1 h at room temperature. After 3 washes, the anti-phosphotyrosine conjugated to the HRP was added and incubated for 1 h at room temperature. Wells were then washed 3 times with TBS buffer containing 0.5 % Tween-20 and 2 mM MgCl2. The reaction was stopped with 50 μL of 2 N H2SO4, and the signal was read with Envision at the wavelengths of 485 nm and 530 nm.
Target sequence in this assay (P35968 20-1356): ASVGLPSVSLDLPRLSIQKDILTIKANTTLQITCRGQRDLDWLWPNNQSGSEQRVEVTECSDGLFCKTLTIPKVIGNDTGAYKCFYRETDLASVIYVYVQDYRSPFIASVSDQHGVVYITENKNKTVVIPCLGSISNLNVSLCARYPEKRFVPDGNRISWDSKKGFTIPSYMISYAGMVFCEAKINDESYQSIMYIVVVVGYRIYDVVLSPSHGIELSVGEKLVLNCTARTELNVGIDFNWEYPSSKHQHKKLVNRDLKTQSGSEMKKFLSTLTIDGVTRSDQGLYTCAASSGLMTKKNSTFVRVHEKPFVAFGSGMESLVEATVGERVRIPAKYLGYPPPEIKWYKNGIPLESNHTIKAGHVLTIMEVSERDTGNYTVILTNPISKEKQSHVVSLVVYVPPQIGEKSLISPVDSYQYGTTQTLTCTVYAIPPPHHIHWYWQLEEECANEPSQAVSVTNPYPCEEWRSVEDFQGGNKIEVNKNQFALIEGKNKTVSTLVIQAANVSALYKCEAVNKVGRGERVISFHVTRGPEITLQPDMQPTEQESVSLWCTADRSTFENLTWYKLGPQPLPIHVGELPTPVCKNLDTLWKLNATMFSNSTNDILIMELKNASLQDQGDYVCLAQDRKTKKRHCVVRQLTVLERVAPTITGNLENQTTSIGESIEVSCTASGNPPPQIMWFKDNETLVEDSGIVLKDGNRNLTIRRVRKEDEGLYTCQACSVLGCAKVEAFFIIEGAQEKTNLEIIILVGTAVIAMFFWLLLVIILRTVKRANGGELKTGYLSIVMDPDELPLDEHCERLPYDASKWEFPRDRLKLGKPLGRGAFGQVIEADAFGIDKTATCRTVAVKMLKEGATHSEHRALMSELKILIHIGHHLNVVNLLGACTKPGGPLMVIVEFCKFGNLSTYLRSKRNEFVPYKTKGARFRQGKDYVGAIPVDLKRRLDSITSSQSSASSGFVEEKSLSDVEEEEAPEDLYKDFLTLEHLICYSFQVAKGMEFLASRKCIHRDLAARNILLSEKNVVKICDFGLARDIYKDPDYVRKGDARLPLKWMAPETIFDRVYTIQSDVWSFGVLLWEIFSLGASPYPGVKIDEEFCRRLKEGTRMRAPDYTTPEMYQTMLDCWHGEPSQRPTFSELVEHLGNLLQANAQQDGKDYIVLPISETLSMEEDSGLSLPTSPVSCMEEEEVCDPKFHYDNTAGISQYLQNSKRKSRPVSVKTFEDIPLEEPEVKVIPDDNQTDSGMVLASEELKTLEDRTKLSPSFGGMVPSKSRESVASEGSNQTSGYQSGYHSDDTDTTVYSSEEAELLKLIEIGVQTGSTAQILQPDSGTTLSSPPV

For experiment [2], the target named is T1, VEGFR-2. The experiment is described as follows: Viability of Ba/F3 cells dependent on VEGFR-2. It is filed as cell-based. Details: fusion proteins consisting of constructs for IL-3 independent survival and either VEGFR-2 or VEGFR-3 kinase domains; expressed in transfected cells; host or cells: Ba/F3 (stably transduced). The procedure: Ba/F3 cells were transduced and selected to stably express fusion proteins consisting of constructs for IL-3 independent survival and either VEGFR-2 or VEGFR-3 kinase domains or without the kinase domain. Proliferation and survival of cell lines was dependent on expression of the transcript. Cells in logarithmic-phase growth were harvested and 5 x 10^3 cells were distributed into each well of a 384-well plate in 50 µL of medium. Then, 50 nL of EVT801, SAR401849 or their vehicle solvent were added to appropriate wells. After 48 h, viability was determined by addition of 10 µL CellTiterGlo reagent (Promega). Luminescence was determined as relative light units (RLU) in counts per second.
Target sequence in this assay (P35968 834-1162 limits assumed, species assumed): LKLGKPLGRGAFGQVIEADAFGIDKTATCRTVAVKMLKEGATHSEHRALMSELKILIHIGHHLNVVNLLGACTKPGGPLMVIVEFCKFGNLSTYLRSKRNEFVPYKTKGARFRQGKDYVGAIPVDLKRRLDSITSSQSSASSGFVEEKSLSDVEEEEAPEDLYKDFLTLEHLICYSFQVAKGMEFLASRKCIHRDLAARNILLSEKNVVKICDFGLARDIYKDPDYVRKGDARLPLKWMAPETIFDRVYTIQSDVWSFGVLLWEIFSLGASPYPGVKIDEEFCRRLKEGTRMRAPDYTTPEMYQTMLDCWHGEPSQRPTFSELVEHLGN

The next experiment has as its target T2, VEGFR-3 (Mus musculus, UniProt P35917).
T2 construct: expressed in transfected cells; host or cells: HEK293T (inferred from the general description of the cellular assay)
The experiment is described as follows: Cellular VEGFR-3 autophosphorylation assay, mouse receptor. It is filed as cell-based. The settings on record: read-out: IC50 in cellular assays, VEGFR-3 autophosphorylation, mouse receptor. The procedure: as §1

T2 sequence (P35917 25-1363): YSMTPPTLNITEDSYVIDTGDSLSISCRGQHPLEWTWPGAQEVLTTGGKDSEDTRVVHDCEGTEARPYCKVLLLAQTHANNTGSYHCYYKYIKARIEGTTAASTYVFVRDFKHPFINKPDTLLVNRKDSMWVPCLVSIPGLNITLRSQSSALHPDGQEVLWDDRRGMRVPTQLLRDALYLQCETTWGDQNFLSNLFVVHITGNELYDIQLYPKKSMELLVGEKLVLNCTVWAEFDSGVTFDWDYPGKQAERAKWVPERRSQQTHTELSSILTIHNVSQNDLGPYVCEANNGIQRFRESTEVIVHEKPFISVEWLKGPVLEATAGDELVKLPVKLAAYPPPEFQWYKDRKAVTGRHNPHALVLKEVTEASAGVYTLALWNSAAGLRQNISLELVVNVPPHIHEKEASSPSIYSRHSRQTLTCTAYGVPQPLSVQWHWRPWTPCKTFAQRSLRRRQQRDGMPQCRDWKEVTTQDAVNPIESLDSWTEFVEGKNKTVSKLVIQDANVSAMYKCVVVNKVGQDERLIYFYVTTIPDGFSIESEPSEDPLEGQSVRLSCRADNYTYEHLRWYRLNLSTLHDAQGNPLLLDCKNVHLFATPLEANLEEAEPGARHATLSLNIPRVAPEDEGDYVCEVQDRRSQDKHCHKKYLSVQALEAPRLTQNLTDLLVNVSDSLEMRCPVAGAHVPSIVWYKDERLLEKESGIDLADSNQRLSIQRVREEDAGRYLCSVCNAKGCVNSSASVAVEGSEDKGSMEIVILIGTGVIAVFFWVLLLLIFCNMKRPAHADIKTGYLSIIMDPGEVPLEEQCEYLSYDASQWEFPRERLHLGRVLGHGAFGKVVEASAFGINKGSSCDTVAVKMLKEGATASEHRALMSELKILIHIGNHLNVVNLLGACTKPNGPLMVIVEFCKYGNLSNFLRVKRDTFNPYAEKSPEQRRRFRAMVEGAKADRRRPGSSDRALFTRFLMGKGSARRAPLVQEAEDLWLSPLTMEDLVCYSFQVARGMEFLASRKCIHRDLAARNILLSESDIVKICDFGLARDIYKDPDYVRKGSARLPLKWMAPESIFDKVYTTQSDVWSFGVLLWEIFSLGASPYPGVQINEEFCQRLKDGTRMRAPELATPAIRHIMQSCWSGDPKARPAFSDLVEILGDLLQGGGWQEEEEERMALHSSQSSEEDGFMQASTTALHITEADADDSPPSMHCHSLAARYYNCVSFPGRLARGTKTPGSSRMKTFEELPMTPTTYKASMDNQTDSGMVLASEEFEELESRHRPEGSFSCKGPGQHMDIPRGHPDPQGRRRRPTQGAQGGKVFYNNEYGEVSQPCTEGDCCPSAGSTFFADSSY

Turning to `CCn1c(N)c(-c2ncc[nH]2)c(=O)c2ccc(C#C[C@@](C)(O)COC)nc21` [EVT801], the IC50 in the experiment with ERK1/2 phosphorylation was 13 nM; at VEGFR-2 [1] it was 260 nM; against VEGFR-2 [2] it was 248 nM; at VEGFR-3, 151 nM. For the same compound, the “T/C ratio, tumor volume” value with CT26 tumors (BALB/c mice, EVT801 30 mg/kg twice per day, anti-PD-1 twice per week, or both) stood at 55%; with 4T1 tumors (orthotopic, 2 weeks, EVT801 30 mg/kg twice per day and/or anti-PD-1 twice per week), 43%; with DEN-induced liver tumor, 22%. Further, the “reduction of hypoxyprobe-positive areas compared with vehicle” value with CT26 tumors (end of treatment, not statistically significant) stood at 42%. For the same compound, in the experiment on 4T1 tumors (endpoint, not statistically significant), the “intratumor infiltrated CD8+ cells” value is reported as “globally doubled”. Besides, the liver weight result in the experiment on DEN-induced liver tumor is on record as “fully prevented the increase in liver weight”.
